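1) Cells in 96-well plates. 2) Compound, 48 h, 5 concentrations. 3) Linear interpolation between surrounding doses. 4) Unreached endpoint = highest concentration. The concentration for 50% growth inhibition is given as GI50.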 The source made the active and inactive calls. Rule as the data show it: active = GI50 up to about 1.1 µM and inactive = higher.
Legend:
Assay in all cases: DTP human tumour cell line panel, 48 h
ACHN = test system: ACHN
CCRF-CEM = test system: CCRF-CEM
HCT-116 = test system: HCT-116
HL-60 = test system: HL-60
IGROV-1 = test system: IGROV-1
MOLT-4 = test system: MOLT-4
NCI-H23 = test system: NCI-H23
OVCAR-8 = test system: OVCAR-8
RXF 393 = test system: RXF 393
SK-MEL-28 = test system: SK-MEL-28
SK-MEL-2 = test system: SK-MEL-2
TK-10 = test system: TK-10
COLO 205 = test system: COLO 205
EKVX = test system: EKVX
SR = test system: SR
SW-620 = test system: SW-620

Structure (SMILES)	GI50 (ACHN)	GI50 (CCRF-CEM)	GI50 (HCT-116)	GI50 (HL-60)	GI50 (IGROV-1)	GI50 (MOLT-4)	GI50 (NCI-H23)	GI50 (OVCAR-8)	GI50 (RXF 393)	GI50 (SK-MEL-28)	GI50 (SK-MEL-2)	GI50 (TK-10)	GI50 (COLO 205)	GI50 (EKVX)	GI50 (SR)	GI50 (SW-620)
O=C(NN1C(=O)C(Cl)C1c1cccc(Cl)c1)c1ccccc1O (centres undefined)	> 100 µM (inactive)	> 100 µM (inactive)	> 100 µM (inactive)	> 100 µM (inactive)	> 100 µM (inactive)	> 100 µM (inactive)	> 100 µM (inactive)	> 100 µM (inactive)	> 100 µM (inactive)	> 100 µM (inactive)	> 100 µM (inactive)	> 100 µM (inactive)	–	–	–	–
COc1ccc(C2NC(c3ccc(OC)cc3)C(C)C(=O)C2C)cc1 (centres undefined)	> 100 µM (inactive)	> 100 µM (inactive)	91.8 µM (inactive)	> 100 µM (inactive)	> 100 µM (inactive)	46.7 µM (inactive)	> 100 µM (inactive)	> 100 µM (inactive)	> 100 µM (inactive)	> 100 µM (inactive)	> 100 µM (inactive)	> 100 µM (inactive)	> 100 µM (inactive)	67 µM (inactive)	–	–
CS(=O)(=O)NNS(=O)(=O)c1ccc(F)cc1	> 100 µM (inactive)	> 100 µM (inactive)	> 100 µM (inactive)	> 100 µM (inactive)	> 100 µM (inactive)	> 100 µM (inactive)	> 100 µM (inactive)	> 100 µM (inactive)	> 100 µM (inactive)	–	> 100 µM (inactive)	> 100 µM (inactive)	> 100 µM (inactive)	> 100 µM (inactive)	> 100 µM (inactive)	> 100 µM (inactive)
CC(=O)/C(=C\c1ccccc1)C(=O)Nc1ccccc1	> 100 µM (inactive)	> 100 µM (inactive)	> 100 µM (inactive)	> 100 µM (inactive)	> 100 µM (inactive)	> 100 µM (inactive)	> 100 µM (inactive)	> 100 µM (inactive)	> 100 µM (inactive)	–	> 100 µM (inactive)	> 100 µM (inactive)	–	> 100 µM (inactive)	> 100 µM (inactive)	> 100 µM (inactive)
CCN(CC)CCC1(C2CCCCC2)CCC(=O)NC1=O (centres undefined)	> 100 µM (inactive)	> 100 µM (inactive)	> 100 µM (inactive)	–	> 100 µM (inactive)	> 100 µM (inactive)	> 100 µM (inactive)	> 100 µM (inactive)	> 100 µM (inactive)	> 100 µM (inactive)	> 100 µM (inactive)	> 100 µM (inactive)	> 100 µM (inactive)	> 100 µM (inactive)	–	> 100 µM (inactive)
COc1ccc2c(c1)[n+]([O-])c(-c1ccc(Cl)c(Cl)c1)c(N)[n+]2[O-]	42.6 µM (inactive)	–	42.9 µM (inactive)	23.7 µM (inactive)	27 µM (inactive)	37.5 µM (inactive)	15.8 µM (inactive)	34.9 µM (inactive)	–	27 µM (inactive)	19.9 µM (inactive)	–	19 µM (inactive)	33.6 µM (inactive)	45 µM (inactive)	38.9 µM (inactive)
N=C(N)NS(=O)(=O)c1ccc(NC(=O)c2cccc3c(N)c4ccccc4nc23)cc1	> 100 µM (inactive)	92.3 µM (inactive)	> 100 µM (inactive)	–	> 100 µM (inactive)	42 µM (inactive)	> 100 µM (inactive)	> 100 µM (inactive)	> 100 µM (inactive)	> 100 µM (inactive)	> 100 µM (inactive)	> 100 µM (inactive)	> 100 µM (inactive)	> 100 µM (inactive)	–	> 100 µM (inactive)
CCOc1cc2c(C(=O)CC)c(O)ccc2o1	> 100 µM (inactive)	24.9 µM (inactive)	> 48 µM (inactive)	12.9 µM (inactive)	> 100 µM (inactive)	58.1 µM (inactive)	> 100 µM (inactive)	> 79.6 µM (inactive)	> 45.1 µM (inactive)	> 35.3 µM (inactive)	> 100 µM (inactive)	> 79.8 µM (inactive)	> 67.9 µM (inactive)	> 100 µM (inactive)	33.7 µM (inactive)	57.3 µM (inactive)
CCCCCCCCCCCCCS(=O)(=O)NCC(N)=O	> 100 µM (inactive)	> 100 µM (inactive)	> 100 µM (inactive)	> 100 µM (inactive)	> 100 µM (inactive)	–	> 100 µM (inactive)	> 100 µM (inactive)	> 100 µM (inactive)	> 100 µM (inactive)	> 100 µM (inactive)	> 100 µM (inactive)	> 100 µM (inactive)	> 100 µM (inactive)	–	> 100 µM (inactive)
CCSc1nc2n(c(=S)n1)CCN2C	19.1 µM (inactive)	–	15.7 µM (inactive)	16.4 µM (inactive)	17.7 µM (inactive)	12.2 µM (inactive)	–	20.7 µM (inactive)	7.89 µM (inactive)	20.1 µM (inactive)	19.1 µM (inactive)	–	–	28.4 µM (inactive)	7.67 µM (inactive)	19.7 µM (inactive)
COc1ccccc1N1C(=O)C2c3[nH]c4ccccc4c3C3CCC(C(C)(C)C)CC3C2C1=O (centres undefined)	> 100 µM (inactive)	> 100 µM (inactive)	> 100 µM (inactive)	> 100 µM (inactive)	> 100 µM (inactive)	> 100 µM (inactive)	> 100 µM (inactive)	> 100 µM (inactive)	> 100 µM (inactive)	> 100 µM (inactive)	–	–	> 100 µM (inactive)	> 100 µM (inactive)	97.1 µM (inactive)	> 100 µM (inactive)
Oc1cc(O)c(Oc2cccc(O)c2O)c(O)c1	> 100 µM (inactive)	33.3 µM (inactive)	–	99.5 µM (inactive)	> 100 µM (inactive)	> 100 µM (inactive)	> 100 µM (inactive)	> 100 µM (inactive)	> 100 µM (inactive)	> 100 µM (inactive)	37.8 µM (inactive)	> 100 µM (inactive)	> 100 µM (inactive)	> 100 µM (inactive)	–	55.6 µM (inactive)
O=C1NC(=O)/C(=N\c2cccc3c(=O)[nH][nH]c(=O)c23)C(c2nc3ccccc3s2)C1=O (centres undefined)	> 100 µM (inactive)	55.2 µM (inactive)	> 100 µM (inactive)	> 100 µM (inactive)	> 100 µM (inactive)	71.1 µM (inactive)	> 100 µM (inactive)	> 100 µM (inactive)	> 100 µM (inactive)	> 100 µM (inactive)	> 100 µM (inactive)	> 100 µM (inactive)	> 100 µM (inactive)	> 100 µM (inactive)	–	> 100 µM (inactive)
O=C(CC(=O)N1N=C(n2ccc3ccccc32)CC1c1ccccc1)Nc1cccc(Cl)c1 (centres undefined)	> 100 µM (inactive)	> 100 µM (inactive)	> 100 µM (inactive)	> 100 µM (inactive)	> 100 µM (inactive)	> 100 µM (inactive)	> 100 µM (inactive)	> 100 µM (inactive)	> 100 µM (inactive)	> 100 µM (inactive)	> 100 µM (inactive)	> 100 µM (inactive)	> 100 µM (inactive)	> 100 µM (inactive)	–	> 100 µM (inactive)
CC1=C(C(=O)CC(=O)C(=O)Nc2cccc(C)c2C)Sc2ccccc2N1	> 100 µM (inactive)	> 100 µM (inactive)	> 100 µM (inactive)	> 100 µM (inactive)	> 100 µM (inactive)	> 100 µM (inactive)	> 100 µM (inactive)	> 100 µM (inactive)	> 100 µM (inactive)	> 100 µM (inactive)	> 100 µM (inactive)	> 100 µM (inactive)	–	> 100 µM (inactive)	–	> 100 µM (inactive)
COc1ccc(OC)c(NC(=O)C2=C(C)NC(C)=C(C(=O)Nc3cc(OC)ccc3OC)C2c2ccccc2)c1	30 µM (inactive)	48.4 µM (inactive)	45.5 µM (inactive)	–	> 100 µM (inactive)	6.5 µM (inactive)	> 100 µM (inactive)	> 100 µM (inactive)	> 100 µM (inactive)	22.6 µM (inactive)	> 100 µM (inactive)	> 100 µM (inactive)	> 100 µM (inactive)	> 100 µM (inactive)	–	> 100 µM (inactive)
O=c1[nH]cc(COCCO)c(=O)[nH]1	> 100 µM (inactive)	> 100 µM (inactive)	> 100 µM (inactive)	> 100 µM (inactive)	> 100 µM (inactive)	> 100 µM (inactive)	> 100 µM (inactive)	> 100 µM (inactive)	> 100 µM (inactive)	> 100 µM (inactive)	> 100 µM (inactive)	> 100 µM (inactive)	> 100 µM (inactive)	> 100 µM (inactive)	–	> 100 µM (inactive)
COC(=O)C1[C@H](c2cc(OC)c(OC)c(OC)c2)OC(=O)C1(C(=O)OC)C(=O)c1ccc2c(c1)OCO2 (some centres undefined)	> 100 µM (inactive)	> 100 µM (inactive)	> 100 µM (inactive)	> 100 µM (inactive)	> 100 µM (inactive)	> 100 µM (inactive)	> 100 µM (inactive)	> 100 µM (inactive)	> 100 µM (inactive)	> 100 µM (inactive)	–	> 100 µM (inactive)	> 100 µM (inactive)	> 100 µM (inactive)	–	> 100 µM (inactive)
Cc1c2ccncc2c(C)c2c1[nH]c1ccc(OCC(F)(F)F)cc12	1.55 µM (inactive)	1.21 µM (inactive)	1.08 µM (active)	2.08 µM (inactive)	1.61 µM (inactive)	0.824 µM (active)	1.71 µM (inactive)	1.32 µM (inactive)	1.9 µM (inactive)	1.73 µM (inactive)	1.58 µM (inactive)	2.1 µM (inactive)	1.55 µM (inactive)	1.61 µM (inactive)	0.828 µM (active)	0.619 µM (active)
